The results in this text go back to ChEMBL document CHEMBL1144890, “3D QSAR analyses-guided rational design of novel ligands for the (alpha4)2(beta2)3 nicotinic acetylcholine receptor” (J Med Chem, 2003).

Neuronal acetylcholine receptor; alpha4/beta2, sequence (P09483 whole entry): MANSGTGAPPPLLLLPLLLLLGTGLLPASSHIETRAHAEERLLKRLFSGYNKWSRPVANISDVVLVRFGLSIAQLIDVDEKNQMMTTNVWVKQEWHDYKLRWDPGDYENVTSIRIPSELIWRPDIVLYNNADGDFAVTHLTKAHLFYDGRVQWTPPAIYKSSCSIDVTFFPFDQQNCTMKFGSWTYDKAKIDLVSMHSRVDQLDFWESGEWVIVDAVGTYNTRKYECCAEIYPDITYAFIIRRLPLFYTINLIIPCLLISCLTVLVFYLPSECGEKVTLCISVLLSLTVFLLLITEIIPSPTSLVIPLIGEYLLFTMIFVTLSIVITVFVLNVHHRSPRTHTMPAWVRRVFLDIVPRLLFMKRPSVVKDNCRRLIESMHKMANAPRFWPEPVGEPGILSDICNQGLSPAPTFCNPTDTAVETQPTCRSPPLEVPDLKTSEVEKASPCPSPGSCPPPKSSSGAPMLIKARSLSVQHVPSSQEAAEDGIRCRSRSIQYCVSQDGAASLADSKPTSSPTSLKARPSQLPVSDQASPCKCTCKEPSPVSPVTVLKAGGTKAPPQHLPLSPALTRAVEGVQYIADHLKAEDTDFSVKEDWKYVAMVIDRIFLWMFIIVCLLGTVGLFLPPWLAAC
Neuronal acetylcholine receptor; alpha4/beta2, sequence (P12390 whole entry): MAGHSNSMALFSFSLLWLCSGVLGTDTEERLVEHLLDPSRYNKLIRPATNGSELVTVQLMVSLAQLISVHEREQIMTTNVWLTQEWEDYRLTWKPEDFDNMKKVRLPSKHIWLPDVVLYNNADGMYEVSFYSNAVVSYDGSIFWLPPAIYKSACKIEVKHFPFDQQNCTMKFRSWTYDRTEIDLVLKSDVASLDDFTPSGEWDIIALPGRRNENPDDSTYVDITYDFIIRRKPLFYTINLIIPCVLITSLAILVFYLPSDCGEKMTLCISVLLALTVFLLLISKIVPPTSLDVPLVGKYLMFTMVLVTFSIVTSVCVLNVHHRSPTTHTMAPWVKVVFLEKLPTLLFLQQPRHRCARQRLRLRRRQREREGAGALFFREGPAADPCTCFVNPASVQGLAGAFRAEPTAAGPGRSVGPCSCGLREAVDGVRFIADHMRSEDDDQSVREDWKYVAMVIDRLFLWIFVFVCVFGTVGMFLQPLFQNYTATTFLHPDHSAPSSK

This assay concerns the target Neuronal acetylcholine receptor; alpha4/beta2 (Rattus norvegicus, UniProt P09483+P12390). Briefly: In vitro binding affinity towards (alpha-4)2(beta-2)3 neuronal nicotinic acetylcholine receptor in P2 membrane fractions of rat forebrain. The class given is cell membranes.
With `O=c1c(I)cc(I)c2n1CC1CNCC2C1` (centres undefined), the affinity corresponds to a Ki of 0.525 nM.
In the case of `CN1C2CC=C(c3ccc(Cl)nc3)C1CC2` (centres undefined), the inhibitory constant (Ki) – broadly, the equilibrium dissociation constant of an inhibitor or competing ligand from its target – is 8.91 nM.
Consider `CN1C2CCC1C(c1ccc(Cl)nc1)C2` (centres undefined), for which affinity was put at a Ki of 0.0269 nM.
The molecule `C1=C(c2cnccn2)CC2CCC1N2` (centres undefined) had a Ki of 30.9 nM.
The result for `O=c1c(Br)cc(Br)c2n1CC1CNCC2C1` (centres undefined) reads 10.7 nM.
The molecule `CN1C2CCC1CN(c1ccc(Cl)nn1)CC2` (centres undefined) showed an inhibitory constant (Ki) of 0.55 nM. This Ki lies about 19-fold lower than the previous one.
Consider `CN1C2CCC1CN(c1cncnc1)CC2` (centres undefined), for which the affinity corresponds to a Ki of 2.09 nM. Compared with the last molecule, the Ki is about 3.8-fold higher.
As for `CN1C2CCC1C(c1ccc(F)nc1)C2` (centres undefined), the figure is 0.0282 nM; as for `C1=C(c2cnccn2)C2CCC(CC1)N2` (centres undefined), 12 nM.
On to `O=c1ccc(I)c2n1CC1CNCC2C1` (centres undefined), for which the affinity, expressed as Ki, was 0.229 nM.
The result for `S=c1cccc2n1CC1CNCC2C1` (centres undefined) reads 0.832 nM.
The result for `c1nncc2c1CC1CCC2N1` (centres undefined) reads 75.9 nM; that for `O=c1ccc(Cl)c2n1CC1CNCC2C1` (centres undefined), 2.51 nM; that for `C1=C(c2cncnc2)C2CCC(C1)N2` (centres undefined), 3.72 nM.
For `Brc1ccc(C2CC3CCC2N3)cn1` (centres undefined), the Ki is 0.0447 nM.
In the case of `CC(=O)C1=CCC2CCC1N2` (centres undefined), the affinity corresponds to a Ki of 93.3 nM.
In turn, `C1=C(c2ccnnc2)C2CCC(CC1)N2` (centres undefined) showed a Ki of 19.1 nM. Compared with the last molecule, the Ki is about 4.9-fold lower.
In turn, `C1=C(c2ccnnc2)CC2CCC1N2` (centres undefined) had an inhibition constant Ki of 10 nM.
`c1ncc2c(n1)CC1CCC2N1` (centres undefined): the inhibition constant (Ki) is 676 nM.
Turning to `CN(C)C(=O)C1=CCC2CCC1N2` (centres undefined), the Ki is 61700 nM.
The molecule `Clc1nccnc1C1=CC2CCC(C1)N2` (centres undefined) gave a Ki of 209 nM.
Turning to `C1=C(c2cncnc2)C2CCN1CC2`, the affinity corresponds to a Ki of 12.3 nM.
The result for `Clc1ccc(C2=CN3CCC2CC3)cn1` reads 2.29 nM.
As for `O=c1c(Br)ccc2n1CC1CNCC2C1` (centres undefined), the figure is 0.01 nM.
Consider `CN1C2CC=C(c3cncnc3)C1CC2` (centres undefined), for which the affinity corresponds to a Ki of 12.6 nM.
Take `C1=C(c2ccnnc2)C2CCC(C1)N2` (centres undefined): the affinity, expressed as Ki, was 7.94 nM.
The result for `CC(=O)C1=CCC2CCC1N2C` (centres undefined) reads 120 nM; that for `CN(C)C(=S)C1=CCC2CCC1N2` (centres undefined), 2450 nM.
`COC(=O)C1=C(c2cccnc2)CC2CCC1N2C` (centres undefined): the Ki was 4900 nM. This Ki lies about 2-fold higher than the previous one.
The molecule `Clc1ncc(C2=CCC3CCC2N3)cn1` (centres undefined) had a Ki of 2 nM. This Ki lies about 2400-fold lower than the previous one.
`O=c1ccc(Br)c2n1CC1CNCC2C1` (centres undefined): the Ki is 0.309 nM.
The molecule `CN1C2CC=C(c3cccnc3)C1CC2` (centres undefined) gave a Ki of 9.55 nM.
The molecule `C1=C(c2cccnc2)C2CCC(CC1)N2` (centres undefined) had a Ki of 0.0513 nM.
The result for `Ic1ccc(C2CC3CCC2N3)cn1` (centres undefined) reads 0.0251 nM; that for `Fc1ccc(C2CC3CCC2N3)cn1` (centres undefined), 0.0282 nM; that for `CN1C2CCC1CN(c1ccnnc1)CC2` (centres undefined), 0.525 nM.
Molecule `CN1C2CCC1CN(c1ccc(Cl)nc1)CC2` (centres undefined) had a Ki of 0.871 nM.
In turn, `CN(C)C(=S)C1=CCC2CCC1N2C` (centres undefined) had a Ki of over 20000 nM.
Molecule `Clc1nccnc1C1=CCC2CCC1N2` (centres undefined) had a Ki of 4170 nM.
For `C1=C(c2cncnc2)CC2CCC1N2` (centres undefined), the Ki was 0.661 nM.
Turning to `Clc1ncc(C2=CCCC3CCC2N3)cn1` (centres undefined), the Ki was 0.151 nM.
In the case of `C1=C(c2cccnc2)CC2CCC1N2` (centres undefined), the Ki was 0.257 nM.
The result for `Clc1ncc(C2=CC3CCC(C2)N3)cn1` (centres undefined) reads 0.708 nM; that for `CN1C2CCC1C(c1ccc(Br)nc1)C2` (centres undefined), 0.0363 nM; that for `O=c1c(I)ccc2n1CC1CNCC2C1` (centres undefined), 0.017 nM.
In turn, `C1=C(c2cccnc2)C2CCC(C1)N2` (centres undefined) gave a Ki of 1.58 nM. This Ki is about 93-fold higher than that of the molecule before.
`Cc1cc(C2=CCC3CCC2N3C)on1` (centres undefined): the affinity, expressed as Ki, was 31.6 nM.
As for `C1=C(c2cnccn2)C2CCC(C1)N2` (centres undefined), the figure is 398 nM; as for `CN1C2C=C(c3ccc(Cl)nc3)CC1CC2` (centres undefined), 1.55 nM.
`C1=C(c2cncnc2)C2CCC(CC1)N2` (centres undefined): affinity was put at a Ki of 0.141 nM.
As for `c1nncc2c1CCC1CCC2N1` (centres undefined), the affinity, expressed as Ki, was 34.7 nM.
`CN(C)C(=O)C1=CCC2CCC1N2C` (centres undefined) had a Ki of 2000 nM.
`O=c1c(Cl)ccc2n1CC1CNCC2C1` (centres undefined) showed a Ki of 0.0224 nM.
In turn, `COC(=O)C1=C(c2cncnc2)CC2CCC1N2C` (centres undefined) gave a Ki of 214 nM. Compared with the last molecule, the Ki is about 9600-fold higher.
In the case of `C1=C(c2cccnc2)C2CCN1CC2`, the Ki is 7.59 nM.
`CN1C2CCC1CN(c1cnccn1)CC2` (centres undefined) showed an inhibition constant (Ki) of 263 nM. This Ki is about 35-fold higher than that of the molecule before.
With `COC(=O)C1=C(c2ccc(Cl)nc2)CC2CCC1N2C` (centres undefined), the affinity corresponds to a Ki of 1660 nM.
The result for `O=c1c(Cl)cc(Cl)c2n1CC1CNCC2C1` (centres undefined) reads 2.51 nM; that for `CN1CC2CC(C1)c1cccc(=O)n1C2` (centres undefined), 5.75 nM; that for `c1ncc2c(n1)C1CCC(C2)N1` (centres undefined), over 10000 nM.
Molecule `CN1C2C=C(c3cncnc3)CC1CC2` (stereo in doubt; 33) had a Ki of 43.7 nM.
The result for `CN1C2C=C(c3cncnc3)CC1CC2` (stereo in doubt; 58) reads 1.26 nM; that for `O=c1cccc2n1C[C@@H]1CNC[C@H]2C1` [CYTISINICLINE], 0.123 nM; that for `c1cncc(C2CC3CCC2N3)c1` (centres undefined) [DESCHLOROEPIBATIDINE], 0.0257 nM.
